Source: patent publication EP4574175A1, “PRODRUG FOR ANTI-AGING RELATED DISEASES AND USE METHOD THEREFOR” (BEIJING SUNCELL BIO-MEDICAL CO., LTD., priority 2022, dated 2024)
Read-outs that look alike come from different tables or passages of the source.

Assays:
in vitro [1] = conditions: mouse
Method: […] Samples were taken and analyzed at time points 0, 15, 30, 45 and 60 minutes during the incubation. The reaction was terminated by adding an amount of acetonitrile solution containing the internal standard. […] The residual percentage, half-life, intrinsic clearance, amplified clearance, hepatic clearance and hepatic extraction ratio were determined. The entire experiment was performed in triplicate. All data calculations were performed by Microsoft Excel software. Peak areas were detected by extracting the ionic spectrum. The in vitro half-life (t1/2) of the parent compound was detected by fitting the natural logarithm of the percentage elimination of the parent compound linearly to time.
The in vitro intrinsic clearance (in µL/min/mg protein) was calculated using the following equation: in vitro CLint = kV/N
The amplified clearance (in mL/min/kg) was calculated using the following equation: Amplified CLint = kV/N × the amplification factor [formula]
The hepatic clearance (in mL/min/kg) was calculated using the following equation: The predicted hepatic CLH = (Q×Fu/RB×theamplifiedCLint)/([…]) [formula] • V = the incubation volume per well (0.2 mL); • N = the total amount of protein (mg) • Q = the hepatic blood flow (mL/min/kg) • Fu = the plasma free rate (assumed to be 1) • RB = the whole blood partition coefficient (assumed to be 1)
The hepatic […] was calculated using the following equation: The hepatic extraction ratio(ER) = (thepredictedhepaticCLH)/Q [formula]

[2] = human, 1 µM
[3] = monkey, 1 µM
[4] = dog, 1 µM
[5] = rat, 1 µM
in vitro [6] = conditions: human
in vitro [7] = conditions: monkey
in vitro [8] = conditions: dog
in vitro [9] = conditions: rat

## O=c1ccc2ccc(O)cc2o1 [7-hydroxycoumarin]
In vitro [1]
  CLint scaled at 1 µM: 87.8 mL/min/kg
In vitro [1]; 1 µM
  The hepatic extraction ratio (E): 0.98
In vitro [1]; microsomes
  CLint scaled at 1 µM: 3630 mL/min/kg
  half-life at 1 µM: 1.68 min
  microsomal CLint at 1 µM: 824 µL/min/mg
[2]
  The hepatic extraction ratio (E): 0.97
[3]
  The hepatic extraction ratio (E): 0.97
[4]
  The hepatic extraction ratio (E): 0.99
[5]
  The hepatic extraction ratio (E): 0.95
In vitro [6]
  CLint scaled at 1 µM: 20.2 mL/min/kg
In vitro [6]; microsomes
  CLint scaled at 1 µM: 774 mL/min/kg
  half-life at 1 µM: 2.25 min
  microsomal CLint at 1 µM: 617 µL/min/mg
In vitro [7]; The predicted intrinsic hepatic clearance Cl int
  CLint scaled at 1 µM: 42.1 mL/min/kg
In vitro [7]; microsomes
  half-life at 1 µM: 1.72 min
  microsomal CLint at 1 µM: 806 µL/min/mg
In vitro [7]; microsomes, The amplified intrinsic clearance Cl int
  CLint scaled at 1 µM: 1210 mL/min/kg
In vitro [8]
  CLint scaled at 1 µM: 30.4 mL/min/kg
In vitro [8]; microsomes
  CLint scaled at 1 µM: 2050 mL/min/kg
  half-life at 1 µM: 1.68 min
  microsomal CLint at 1 µM: 824 µL/min/mg
In vitro [9]
  CLint scaled at 1 µM: 52.3 mL/min/kg
In vitro [9]; microsomes
  CLint scaled at 1 µM: 1010 mL/min/kg
  half-life at 1 µM: 2.47 min
  microsomal CLint at 1 µM: 562 µL/min/mg
